Results taken from patent US20210260033A1, “COMBINED THERAPY WITH ICOS BINDING PROTEINS AND […] INHIBITORS” (GLAXOSMITHKLINE INTELLECTUAL PROPERTY DEVELOPMENT LIMITED, priority 2018, published 2021).
Where two headings read alike, the source gives them in different places.

Key:
[1] = test system: AML cell lines; assay: 6-day growth-death assay (Cell Titer Glo); assay type: cell-based, human; settings: 10 cell lines
Method: (§4) The growth of all cell lines was evaluated over time across a wide range of seeding densities to identify conditions that permitted proliferation throughout the entire 6-day assay. Cells were plated at the optimal seeding density and after overnight incubation, a 20-point 2-fold titration of compound was added and plates were incubated for 6 days. A replicate plate of cells was harvested at the time of compound addition to quantify the starting number of cells (T0). Values obtained after the 6 day treatment were expressed as a function of the T0 value and plotted against compound concentration. The T0 value was normalized to 100% and represents the number of cells at the time of compound addition. The data were fit with a 4 parameter equation to generate a concentration response curve and the growth IC50 (gIC50) was determined. The gIC50 is the midpoint of the ‘growth window’, the difference between the number of cells at the time of compound addition (T0) and the number of cells after 6 days (DMSO control). The growth-death assay can be used to quantify the net population change, clearly defining cell death (cytotoxicity) as fewer cells compared to the number at the time of compound addition (T0).

[2] = test system: lymphoma cell lines; assay: 6-day growth-death assay (Cell Titer Glo); assay type: cell-based, human; settings: Hodgkin's and non-Hodgkin's subtypes
Method: as §4

[3] = test system: kidney cancer cell lines; assay: 6-day growth-death assay (Cell Titer Glo); assay type: cell-based, human; settings: renal cell carcinoma lines tested
Method: as §4

[4] = test system: Toledo DLBCL cells; assay: western analysis of arginine methylation, timecourse; assay type: cell-based, human; settings: 0.4 uM
Method: (B) Representative western blots of arginine methylation marks. Regions quantified are denoted by black bars on the right of the gel.
As predicted, ADMA methylation decreased while MMA increased upon compound exposure (FIG. 12). […] Given the detection of numerous substrates with varying kinetics, and variability of ADMA levels among DMSO-treated samples, both the full lane and a prominent 45 kDa band were characterized to assess ADMA. Increases in MMA were apparent by 24 hours and near maximal by 48 hours while decreases in the 45 kDa ADMA band required 72-96 hours to achieve maximal effect. Increases in SDMA were apparent after 48 hours of compound exposure and continued to increase through 120 hours, consistent with the potential switch from conversion of MMA to ADMA by Type I PRMTs to SDMA by Type II PRMTs (FIG. 12).

[5] = test system: OCI-Ly1
Method: (§1) FIG. 18: Propidium iodide FACS analysis of cell cycle in human lymphoma cell lines. […] Data represents the average±SEM of biological replicates, n=2.
(§2) By day 7, an increase in the sub-G1 population was apparent at concentrations ≥100 nM.

[6] = test system: U2932
Method: as §1, §2

[7] = test system: panel of lymphoma cell lines; assay: western dose response of arginine methylation; assay type: cell-based, human; settings: all lymphoma cell lines evaluated; 72 hours
Description: Regions quantified for (B) are denoted by black bars to the left of gels. […] Corresponding gIC50 values in 6-day growth death assay are as indicated in red.

[8] = test system: AML cell lines; assay: 6 and 10 day proliferation assays; assay type: cell-based, human; settings: day 10 vs day 6
Description: (§3) (B) Ymin-T0 at 6 day (light blue) and 10 day (dark blue) with corresponding gIC100 (red points).

[9] = test system: lymphoma cell lines; assay: 6 and 10 day proliferation assays; assay type: cell-based, human; settings: day 10 vs day 6
Description: as §3

[10] = rat, at 14-day MTD […] mg/kg
[11] = dog, at 21-day MTD […] mg/kg
[12] = test system: AML cell lines; assay: Methylscan proteomic evaluation of arginine methylation; assay type: cell-based; settings: AML cell lines treated with the tool compound vs DMSO
Description: FIG. 3: Methylscan evaluation of cell lines treated with Compound D. Percent of proteins with methylation changes (independent of directionality of change) are categorized by functional group as indicated.
To identify putative PRMT1 substrates, a proteomic approach (Methylscan, Cell Signaling Technology) was utilized to identify proteins with changes in arginine methylation states in response to a tool PRMT1 inhibitor, Compound D. Protein fragments from Compound D- and DSMO-treated cell extracts were immunoprecipitated using methyl arginine specific antibodies (ADMA, MMA, SDMA), and peptides were identified by mass spectrometry.

SMILES	number of cell lines in which cytotoxicity was induced [1]	sensitivity by lymphoma subtype [2]	cytotoxic response [3]	time to maximal decrease of the 45 kDa ADMA band [4]	change of ADMA methylation ([4]; up to 120 hours)	change of MMA ([4]; up to 120 hours)	change of SDMA ([4]; up to 120 hours)	concentration at which sub-G1 effect was evident [5]	concentration at which sub-G1 effect was evident [6]	45 kDa ADMA band [7]	effect of extended exposure on potency (gIC50) or cytotoxicity (Ymin-T0) [8]	effect of extended exposure on potency (gIC50) or cytotoxicity (Ymin-T0) [9]	Cave (total AUC or exposure) [10]	Cave (total AUC or exposure) [11]	proteins with changes in arginine methylation states (ADMA, MMA, SDMA) [12]
CCOCC1(COCC)CCC(c2n[nH]cc2CN(C)CCNC)CC1 [Compound A]	5 cell lines	equally sensitive	none of the lines tested showed a cytotoxic response	72 to 96 h	decreased	increased	increase	10 µM	10 µM	decreased to undetectable levels	minimal effects	minimal effects	2100 nM	3200 nM	–
CNCCN(C)Cc1c[nH]nc1[C@H]1CC[C@@]2(CC1)CC(C)(C)CO2 [Compound D]	–	–	–	–	–	–	–	–	–	–	–	–	–	–	the majority of substrates identified were transcriptional regulators and RNA processing proteins
